Values after ≈ are worked out from the molar mass of the structure shown. Read-outs that look alike come from different tables or passages of the source.
Key:
[1] = HPLC test of drug released after 8 months inside the device; assay type: physicochemical; conditions: HPLC after 8 months encapsulated inside the device
Protocol: The released drug from the device was tested with HPLC after 8 months that was encapsulated inside the device.

PC3 cells = experiment: PC3 cell viability (MTS assay); assay type: cell-based; conditions: for cell viability equilibrated: PC3 cells, 2 days incubation
Protocol: (§1) A prototype device was actuated at the desired number of actuations in 1% BSA solution. The released DTX was extracted in 1 ml DCM, as described previously. This mixture was dried down under nitrogen flow at 40° C. and was then reconstituted in either HUVEC and PC3 cell media to the original volume of 4 ml. Alternatively, fresh solutions of free DTX were prepared in various concentrations (2-250 nM) in acetonitrile, dried down under nitrogen flow at 40° C., and reconstituted in cell media.
PC3 and HUVEC cells were seeded in 96 well plates in their respective media at a concentration of 1500 cells per well. The cells were allowed to equilibrate for 2 days at which time they became approximately 50% confluent and were ready for drug incubation. Cells were incubated for 2 days at 37° C. with 200 μl of either freshly prepared solutions of DTX at various concentrations or with the drug solution released from the device under various number of device actuations. Cell viability was determined using a CellTiter 96 AQueous Non-Radioactive Cell Proliferation Assay (MTS assay, Promega Corporation, Madison, Wis.) and quantified by reading the absorbance at 492 nm minus the absorbance at 610 nm using a spectrometric plate reader. In both experiments, the values presented are for the averages of six replicas for each condition.
The biological activity of the DTX released from a device was investigated. This was achieved by incubating cells with the released drug in cell culture media and measuring the drug induced inhibition of proliferation in comparison to the inhibition caused by freshly made drug solutions. The device used for this study had been fabricated and left in BSA solution for two months (with an open aperture) prior to the experiment. The amount of DTX release during this period was estimated to be about 4.5 μg based on measured DTX diffusion rate. It was then actuated under a 255 mT magnetic field for different numbers of actuation cycles. The amounts of released drug were then experimentally interpolated from “number of actuations” to “drug concentrations”, using FIG. 4-a. […]

[2] = Saturation solubility of DTX in the solution-filled reservoir; assay type: physicochemical; conditions: 40 mg/ml BSA solution in PBS inside the device reservoir, aqueous buffer, thermodynamic from solid; solid DTX dissolved by BSA solution in PBS inside the reservoir, 37° C.
Protocol: Step 8: The device was exposed to a 40 mg/ml bovine serum albumin (BSA, Sigma-Aldrich Canada Ltd., Ontario, Canada) solution in phosphate buffered saline (PBS) and incubated at 37° C. to increase the wet ability of the magnetic PDMS membrane and thus filling of the drug reservoir with water. The hydrophilic aperture walls results in surface-tension driven flow through the aperture and gradual filling of the reservoir with solution.

HUVECs = experiment: HUVEC viability (MTS assay); assay type: cell-based; conditions: 2 days incubation
Protocol: as §1
PC3 and HUVEC cells were seeded in 96 well plates in their respective media at a concentration of 1500 cells per well. The cells were allowed to equilibrate for 2 days at which time they became approximately 50% confluent and were ready for drug incubation. […] Cell viability was determined using a CellTiter 96 AQueous Non-Radioactive Cell Proliferation Assay (MTS assay, Promega Corporation, Madison, Wis.) and quantified by reading the absorbance at 492 nm minus the absorbance at 610 nm using a spectrometric plate reader. […]
The biological activity of the DTX released from a device was investigated. […] The amount of DTX release during this period was estimated to be about 4.5 μg based on measured DTX diffusion rate. […]

[3] = cited from earlier work
[4] = drug released from the device (255 mT, device kept two months in BSA solution)

| drug remained intact [1] | solubility [2] | SMILES | cell viability equilibrated (PC3 cells; [4]) | cell viability equilibrated (PC3 cells; fresh free drug) | stability of DTX inside the PDMS MEMS device (PC3 cells; after two months, judged by antiproliferative effect) | cell viability equilibrated (HUVECs; [4]) | cell viability equilibrated (HUVECs; fresh free drug) | solubility [3] |
| --- | --- | --- | --- | --- | --- | --- | --- | --- |
| over 95% | ~5 µg/mL (≈ 0.00619 mM) | CC(=O)O[C@@]12CO[C@@H]1C[C@H](O)[C@@]1(C)C(=O)[C@H](O)C3=C(C)[C@@H](OC(=O)[C@H](O)[C@@H](NC(=O)OC(C)(C)C)c4ccccc4)C[C@@](O)([C@@H](OC(=O)c4ccccc4)[C@H]21)C3(C)C [DTX, docetaxel] | about 34% | about 34% | does not degrade | about 24% | about 24% | – |
| – | – | CC(C)OC(=O)CCC/C=C\C[C@@H]1[C@@H](CC[C@@H](O)CCc2ccccc2)[C@H](O)C[C@@H]1O [latanoprost] | – | – | – | – | – | 50000 µg/mL (≈ 116 mM) |
| – | – | CC(C)(C)NC[C@H](O)COc1nsnc1N1CCOCC1 [timolol] | – | – | – | – | – | 2500 µg/mL (≈ 7.9 mM) |

Source: patent US9289584B2, “Remotely controlled drug delivery systems” (THE UNIVERSITY OF BRITISH COLUMBIA, priority 2010, dated 2016)
